From publication PMC11089204 (Frontiers in Pharmacology, 2024)

Assays:
[1] = system: serotonin transporter (SERT); parameters: method as in Rickli et al., 2016; settings: ref Rickli et al., 2016; cited from earlier work
CYP2D6 = assay: Influence of CYP2D6 genotype on psilocin plasma exposure in humans; format: in vivo; settings: human, PM/IM/EM/UM genotypes, AUC z-scores
Experimental: Genomic DNA was extracted from whole blood using the QIAamp DNA Blood Mini Kit (Qiagen, Hombrechtikon, Switzerland) and an automated QIAcube system. SNP genotyping was performed using commercial TaqMan SNP genotyping assays (LuBio Science, Lucerne, Switzerland). We assayed the following SNPs and respective alleles: CYP2D6*3 (rs35742686, assay: C_32407232_50), CYP2D6*4 (rs3892097, assay: C_27102431_D0, and rs1065852, assay: C_11484460_40), CYP2D6*6 (rs5030655, assay: C_32407243_20), CYP2D6*9 (rs5030656, assay: C_32407229_60), CYP2D6*10 (rs1065852), CYP2D6*17 (rs28371706, assay: C_2222771_A0, and rs16947, assay: C_27102425_10), CYP2D6*29 (rs59421388, assay: C_3486113_20), and CYP2D6*41 (rs28371725, assay: C_34816116_20, and rs16947). CYP2D6 gene deletion (allele *5) and duplication/multiplication (allele *xN) were determined using a TaqMan Copy Number Assay (Hs04502391_cn). Activity scores for CYP2D6 were assigned according to established guidelines ([Gaedigk et al., 2008]; [Crews et al., 2012]; [Hicks et al., 2013]; [Hicks et al., 2015]; [Caudle et al., 2020]). The classification into different genotypes was as follows: poor metabolizer (PM, activity score = 0), intermediate metabolizer (IM, activity score = 0.5–1), extensive metabolizer (EM, activity score = 1.5–2), and ultra-rapid metabolizer (UM, activity score > 2).

CN(C)CCc1c[nH]c2cccc(O)c12 [psilocin, 4-hydroxy-N,N-dimethyltryptamine]
inhibition of SERT [1]: moderately inhibits | effect of CYP2D6 genotype on plasma concentration of free psilocin (CYP2D6): did not alter
